This note sets out measurements from patent US4562190A, “Benzothiazolone derivatives, processes for preparation thereof and pharmaceutical compositions comprising the same” (Fujisawa Pharmaceutical Co., Ltd., priority 1983, dated 1985).

Like-named read-outs stand apart in the source and are kept apart here.

The test system of one test is blood pressure. As to the kind of experiment: Antihypertensive activity (DOCA-treated, uninephrectomized rats, oral). As to conditions: dose 1.0 mg/kg, DOCA/saline uninephrectomized rats, mean blood pressure 150-200 mmHg. It is filed as in vivo, male Wistar rats. The procedure: Five-week old male Wistar rats were uninephrectomized under anesthesia. Deoxycorticosterone acetate (DOCA) (30 mg/kg), suspended in peanut oil, was injected subcutaneously twice a week and 1% saline was substituted for the drinking water. Animals with mean blood pressure 150-200 mmHg were used for experiment between 5 and 7 weeks after surgery.
The test compound was administered orally. Blood pressure was measured at the femoral artery by means of a pressure transducer and recorded as electrically integrated values of mean arterial pressure.

Test [1] relates to left ventricular pressure (dp/dt max) and heart rate. The test is described as follows: Cardiotonic activity (anesthetized dogs, i.v.). It is filed as in vivo, Mongrel dogs. As to conditions: dosage 1 mg/kg (printed "1."), injected into femoral vein; pentobarbital-anesthetized dogs; vs predosing period. Here is the method: Mongrel dogs of either sex were anesthetized with sodium pentobarbital, 35 mg/kg, i.p.. The animals were allowed to breathe spontaneously. The left carotid artery was isolated and a catheter (USCI, #8F) filled with heparinized saline was inserted and advanced into the left ventricle. The catheter was connected to a pressure transducer (Nihonkohden, MPU-0.5A) to measure the left ventricular pressure, from which dp/dt max was derived by analog computing. To measure the systemic blood pressure the left femoral artery was cannulated. The blood pressure pulses was used to trigger a heart rate meter. Another catheter was positioned in the vena cave through right femoral vein for injection of drug. Systemic blood pressure, left ventricular pressure, dp/dt max and heart rate were recorded simultaneously on a polygram (Nihonkohden, RJG-4008).
Test compound was dissolved in dimethyl sulfoxide (0.04 ml/kg) and injected into the femoral vein. The parameters after dosing were compared with those during the predosing period.
Test results were represented in terms of percentage of dp/dt max changes (dp/dt M.C.) and percentage of heart rate changes (H.R.C.) calculated by following formulae. [formula]

Another test concerns platelet aggregation. The test is described as follows: Inhibitory activity on platelet aggregation. As to conditions: Oryctolagus cuniculus, rabbit platelet rich plasma, 37° C. The format is cell-based. Here is the method: Platelet rich plasma (PRP) which contains 6.5-7.5×10^8 platelet/ml was prepared from rabbit blood. To the 200 μl of PRP, 5 μl of calcium chloride (1mM) and 50 μl of pH 7.4 Tris-acetate solution (5 mM) containing 120mM NaCl and test compound was added successively, and then stirred for 2 min. at 37° C. To the solution 5 μl of adenosine diphosphate (ADP) (2.5 μM) or collagen (2.5 μg/ml) was added as an aggregation inducer. Aggregation was measured by using an aggregometer (NKK HEMA TRACER 1).

With `CC1CC(=O)NN=C1c1ccc2sc(=O)n(C)c2c1` (centres unmarked) [test compound .circle.1, 3-Methyl-5-(4-methyl-6-oxo-1,4,5,6-tetrahydro-3-pyridazinyl)benzothiazolone], the “Effect Max (mean ratio of maximum decrease of blood pressure)” value with blood pressure was found to be 63%.

With `CCOC(=O)Cn1c(=O)sc2ccc(C3=NNC(=O)CC3C)cc21` (centres unmarked) [test compound .circle.2, 3-Ethoxycarbonylmethyl-5-(4-methyl-6-oxo-1,4,5,6-tetrahydro-3-pyridazinyl)benzothiazolone], in test [1], the “H.R.C. (percentage of heart rate changes)” value is listed as 22% and the “dp/dt M.C. (percentage of dp/dt max changes)” value amounted to 63%.

Regarding `CC1CC(=O)NN=C1c1ccc2sc(=O)[nH]c2c1` (centres unmarked) [test compound .circle.3, 5-(4-Methyl-6-oxo-1,4,5,6-tetrahydro-3-pyridazinyl)benzothiazolone], the IC50 in the test on platelet aggregation (inducer ADP (2.5 μM), read-out: ID50, ADP) came out at 61 nM; in the test with platelet aggregation (inducer collagen (2.5 μg/ml), read-out: ID50, Collagen), 35 nM.
